Source: patent US10376513B2, “Heterocyclylamines as PI3K inhibitors” (Incyte Corporation, priority 2011, dated 2019)

The compounds below were run against PI3Kδ (p110δ/p85α) (Homo sapiens (Human), UniProt O00329) (assay: PI3Kδ scintillation proximity assay (Example A3)). Conditions: 20 μM ATP, 4 nM PI3Kδ, read-out: PI3Kδ SPA IC50.
Assay type: biochemical
Experimental: [γ-^33P]ATP (10 mCi/mL) was purchased from Perkin-Elmer (Waltham, Mass.). […] PI3Kδ (p110δ/p85α) was purchased from Millipore (Bedford, Mass.). ATP, MgCl2, DTT, EDTA, MOPS and CHAPS were purchased from Sigma-Aldrich (St. Louis, Mo.). Wheat Germ Agglutinin (WGA) YSi SPA Scintillation Beads was purchased from GE healthcare life sciences (Piscataway, N.J.).
The kinase reaction was conducted in polystyrene 384-well matrix white plate from Thermo Fisher Scientific in a final volume of 25 μL. Inhibitors were first diluted serially in DMSO and added to the plate wells before the addition of other reaction components. The final concentration of DMSO in the assay was 0.5%. The PI3K assays were carried out at room temperature in 20 mM MOPS, pH 6.7, 10 mM MgCl2, 5 mM DTT and CHAPS 0.03%. Reactions were initiated by the addition of ATP, the final reaction mixture consisted of 20 μM PIP2, 20 μM ATP, 0.2 μCi [γ-^33P] ATP, 4 nM PI3Kδ. […] 25 mM EDTA, 400 μM ATP. The final concentration of SPA beads was 1.0 mg/mL. After the plate sealing, plates were shaken overnight at room temperature and centrifuged at 1800 rpm for 10 minutes, the radioactivity of the product was determined by scintillation counting on Topcount (Perkin-Elmer). IC50 determination was performed by fitting the curve of percent control activity versus the log of the inhibitor concentration using the GraphPad Prism 3.0 software.

Sequence of PI3Kδ (p110δ/p85α) (O00329 whole entry, species assumed): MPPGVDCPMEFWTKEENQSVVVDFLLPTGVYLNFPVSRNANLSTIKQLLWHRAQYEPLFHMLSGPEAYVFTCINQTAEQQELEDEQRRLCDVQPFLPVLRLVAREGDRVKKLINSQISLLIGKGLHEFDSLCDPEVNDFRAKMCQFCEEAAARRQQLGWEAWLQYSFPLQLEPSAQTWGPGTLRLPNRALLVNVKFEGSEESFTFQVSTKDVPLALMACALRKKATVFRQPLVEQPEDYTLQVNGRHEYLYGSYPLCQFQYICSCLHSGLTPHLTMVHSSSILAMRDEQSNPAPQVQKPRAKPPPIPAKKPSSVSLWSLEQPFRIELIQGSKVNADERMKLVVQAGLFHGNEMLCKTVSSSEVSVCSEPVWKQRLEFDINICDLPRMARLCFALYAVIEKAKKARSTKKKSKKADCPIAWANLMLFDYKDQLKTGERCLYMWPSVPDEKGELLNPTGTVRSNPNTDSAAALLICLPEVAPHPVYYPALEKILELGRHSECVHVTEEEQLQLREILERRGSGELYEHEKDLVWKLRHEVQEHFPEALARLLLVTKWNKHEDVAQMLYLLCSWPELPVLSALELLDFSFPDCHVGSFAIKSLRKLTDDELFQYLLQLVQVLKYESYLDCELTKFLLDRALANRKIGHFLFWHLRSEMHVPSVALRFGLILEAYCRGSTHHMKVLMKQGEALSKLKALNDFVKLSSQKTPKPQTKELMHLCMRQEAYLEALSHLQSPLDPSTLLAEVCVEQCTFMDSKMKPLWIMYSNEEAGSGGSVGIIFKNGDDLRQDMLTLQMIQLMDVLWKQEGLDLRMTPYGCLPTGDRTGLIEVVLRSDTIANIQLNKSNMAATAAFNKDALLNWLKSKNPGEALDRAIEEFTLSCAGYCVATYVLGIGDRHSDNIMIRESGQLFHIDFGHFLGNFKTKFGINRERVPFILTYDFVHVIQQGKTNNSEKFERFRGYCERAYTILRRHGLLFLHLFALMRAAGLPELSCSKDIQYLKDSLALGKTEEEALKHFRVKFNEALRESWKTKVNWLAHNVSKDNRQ
Sequence of PI3Kδ (p110δ/p85α) (P27986 whole entry partner, species assumed): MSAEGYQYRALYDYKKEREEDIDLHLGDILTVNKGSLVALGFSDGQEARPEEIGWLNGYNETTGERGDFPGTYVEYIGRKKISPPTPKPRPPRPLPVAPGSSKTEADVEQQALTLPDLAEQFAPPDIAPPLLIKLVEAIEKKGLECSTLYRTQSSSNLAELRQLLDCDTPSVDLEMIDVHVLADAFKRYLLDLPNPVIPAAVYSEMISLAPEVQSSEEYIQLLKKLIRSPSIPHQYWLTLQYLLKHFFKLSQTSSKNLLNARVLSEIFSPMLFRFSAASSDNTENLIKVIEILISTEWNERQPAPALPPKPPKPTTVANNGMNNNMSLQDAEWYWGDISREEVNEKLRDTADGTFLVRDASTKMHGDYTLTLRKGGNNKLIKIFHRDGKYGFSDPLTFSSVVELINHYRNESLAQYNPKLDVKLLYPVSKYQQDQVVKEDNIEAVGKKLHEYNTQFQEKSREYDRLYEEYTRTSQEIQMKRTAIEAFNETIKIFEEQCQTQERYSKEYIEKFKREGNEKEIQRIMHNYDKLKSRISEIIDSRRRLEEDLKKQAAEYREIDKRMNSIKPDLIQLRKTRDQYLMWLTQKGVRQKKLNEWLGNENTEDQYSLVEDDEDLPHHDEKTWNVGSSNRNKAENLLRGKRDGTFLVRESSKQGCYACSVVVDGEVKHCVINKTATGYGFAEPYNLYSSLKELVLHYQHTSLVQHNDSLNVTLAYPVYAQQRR

| SMILES | IC50 |
| --- | --- |
| COc1c(C(C)n2nc(C)c3c(N)ncnc32)cc(Cl)c(F)c1C1CN(C[C@H](C)O)C1 (single isomer, unassigned) [68 (2nd peak)] | < 10 nM |
| COc1c(C(C)n2nc(C)c3c(N)ncnc32)cc(Cl)c(C)c1-c1cncc(C(=O)N(C)C2CC2)c1 (centres unmarked) [Example 174, 5-(3-(1-(4-Amino-3-methyl-1H-pyrazolo[3,4-d]pyrimidin-1-yl)ethyl)-5-chloro-2-methoxy-6-methylphenyl)-N-cyclopropyl-N-methylnicotinamide bis(2,2,2-trifluoroacetate)] | < 10 nM |
| COc1c(C(C)n2nc(C)c3c(N)ncnc32)cc(Cl)c(C)c1-c1ccc(NCCO)nc1 (centres unmarked) [Example 184, 2-[(5-{3-[1-(4-Amino-3-methyl-1H-pyrazolo[3,4-d]pyrimidin-1-yl)ethyl]-5-chloro-2-methoxy-6-methylphenyl}pyridin-2-yl)amino]ethanol] | < 10 nM |
| COc1c(C(C)n2nc(C)c3c(N)ncnc32)cc(Cl)c(C)c1-c1ccc(OCCO)nc1 (centres unmarked) [Example 188, 2-(5-(3-(1-(4-Amino-3-methyl-1H-pyrazolo[3,4-d]pyrimidin-1-yl)ethyl)-5-chloro-2-methoxy-6-methylphenyl)pyridin-2-yloxy)ethanol] | < 10 nM |
| Cc1c(Cl)cc(C(C)n2nc(C)c3c(N)ncnc32)c(OCC(F)F)c1-c1ccc(C(=O)N(C)C)nc1 (centres unmarked) [Example 189, 5-(3-(1-(4-Amino-3-methyl-1H-pyrazolo[3,4-d]pyrimidin-1-yl)ethyl)-5-chloro-2-(2,2-difluoroethoxy)-6-methylphenyl)-N,N-dimethylpicolinamide bis(2,2,2-trifluoroacetate)] | < 10 nM |
| Cc1c(Cl)cc(C(C)n2nc(C)c3c(N)ncnc32)c(OCC2CC2)c1-c1ccc(C(=O)N(C)C)nc1 (centres unmarked) [Example 190, 5-(3-(1-(4-Amino-3-methyl-1H-pyrazolo[3,4-d]pyrimidin-1-yl)ethyl)-5-chloro-2-(cyclopropylmethoxy)-6-methylphenyl)-N,N-dimethylpicolinamide bis(2,2,2-trifluoroacetate)] | < 10 nM |
| CCOc1c(C(C)n2nc(C)c3c(N)ncnc32)cc(Cl)c(C)c1-c1cnn(CC(N)=O)c1 (centres unmarked) [Example 203, 2-(4-(3-(1-(4-Amino-3-methyl-1H-pyrazolo[3,4-d]pyrimidin-1-yl)ethyl)-5-chloro-2-ethoxy-6-methylphenyl)-1H-pyrazol-1-yl)acetamide] | < 10 nM |

Further lines, results first:

| IC50 | SMILES |
| --- | --- |
| < 10 nM | COc1c(C(C)n2nc(C(F)F)c3c(N)ncnc32)cc(Cl)c(C)c1-c1ccc(C(=O)N(C)C)nc1 (centres unmarked) [Example 191, 5-(3-{1-[4-Amino-3-(difluoromethyl)-1H-pyrazolo[3,4-d]pyrimidin-1-yl]ethyl}-5-chloro-2-methoxy-6-methylphenyl)-N,N-dimethylpyridine-2-carboxamide] |
| < 10 nM | COc1c(C(C)n2nc(C)c3c(N)ncnc32)cc(Cl)c(C)c1CC#N (centres unmarked) [Example 194, {3-[1-(4-Amino-3-methyl-1H-pyrazolo[3,4-d]pyrimidin-1-yl)ethyl]-5-chloro-2-methoxy-6-methylphenyl}acetonitrile] |
| < 10 nM | CCOc1c(C(C)n2nc(C)c3c(N)ncnc32)cc(Cl)c(C)c1-c1ccc(C(=O)N(C)C)cn1 (centres unmarked) [Example 208, 6-{3-[1-(4-Amino-3-methyl-1H-pyrazolo[3,4-d]pyrimidin-1-yl)ethyl]-5-chloro-2-ethoxy-6-methylphenyl}-N,N-dimethylnicotinamide bis(trifluoroacetate)] |
| < 10 nM | CCOc1c(C(C)n2nc(C)c3c(N)ncnc32)cc(Cl)c(C)c1C#N (centres unmarked) [Example 211, 3-[1-(4-Amino-3-methyl-1H-pyrazolo[3,4-d]pyrimidin-1-yl)ethyl]-5-chloro-2-ethoxy-6-methylbenzonitrile] |
